Experimental findings from US20230372427A1, “THE COMPOSITIONS OF PLANT INGREDIENTS AND HERBS AGAINST CORONAVIRUS” (priority 2022, published 2023) are described below.

For this assay, the system named is wild-type SARS-CoV-2 pseudotyped lentivirus (WT-GFP-SARS-CoV-2-pseudotyped lentivirus). The assay is described as follows: microbe, parasite or virus in culture. Format: cell-based. The conditions noted are these: HEK-293T, 72 h, read-out: inhibitory effect (viral entry), positive control.

Regarding `CCN(CC)CCCC(C)Nc1ccnc2cc(Cl)ccc12` (stereo not shown) [chloroquine, Chloroquine], the inhibition at 0.5 µg/mL was ~70%.
